Test system: PPARG (murine PPARg2 or full-length human PPARg)
Experiment: Cell-based PPRE-luciferase transactivation assay in COS-1 cells

CN(CCOc1ccc(CC2SC(=O)NC2=O)cc1)c1ccccn1 (stereo not shown) [rosiglitazone]
activation of the PPRE reporter: about 5 fold

Source: US9051265B2, “N-benzylindole modulators of PPARG” (The Scripps Research Institute, priority 2011, dated 2015)
